Measurements as given in patent publication US7094600B2, “Screen for sodium channel modulators” (The Research Foundation of State University of New York, priority 2003, dated 2006).
Values joined by “and” are separate entries in the source; they are usually repeats but may differ in a detail not shown here. Identical values can stand only once. Like-named read-outs stand apart in the source and are kept apart here.

How the values were obtained:
[1] = target: T1, hNav1.4-L443C/A444W Na+ channels (Homo sapiens, UniProt P35499, A444W/L443C); assay: Whole-cell patch clamp of hNav1.4-L443C/A444W mutant Na+ channels in stably transfected HEK293 cells; assay type: cell-based
T1 construct: full-length hNav1.4 cDNA inserted in the pRc/CMV vector; expressed in transfected cells; pRc/CMV vector

[2] = system: pronase-treated Na+ channels; details: cited from earlier work
IFM/QQQ mutant channels = details: cited from earlier work
[3] = target: T2, rNav1.4 Na+ channels (wild-type) (Rattus norvegicus, UniProt P15390); assay: Whole-cell patch clamp of wild-type rNav1.4 Na+ currents in transfected HEK293t cells; assay type: cell-based; design: time constant of recovery from inactivated block / block of peak Na+ currents (resting state): dose or concentration left out as unconfirmed; details: for time for full recovery from flecainide block (dissociation): holding potential −140 mV, block developed after channel activation
T2 construct: expressed in transfected cells; host or cells: HEK293t, transient, calcium phosphate; pcDNA1/Amp vector

[4] = target: T3, rNav1.4-L435W/L437C/A438W mutant channels (Rattus norvegicus, UniProt P15390, A438W/L435W/L437C); assay: Whole-cell patch clamp of inactivation-deficient rNav1.4-L435W/L437C/A438W mutant channels in HEK293t cells; assay type: cell-based
T3 construct: expressed in transfected cells; host or cells: HEK293t, transient, calcium phosphate; pcDNA1/Amp vector

[5] = as antiarrhythmic agent; cited from earlier work
[6] = 10 μM, external, 100-ms test pulse at +50 mV
[7] = 30 μM flecainide, 10 s conditioning prepulses -180 to -10 mV, test +30 mV

T1 sequence (P35499 whole entry L443C/A444W): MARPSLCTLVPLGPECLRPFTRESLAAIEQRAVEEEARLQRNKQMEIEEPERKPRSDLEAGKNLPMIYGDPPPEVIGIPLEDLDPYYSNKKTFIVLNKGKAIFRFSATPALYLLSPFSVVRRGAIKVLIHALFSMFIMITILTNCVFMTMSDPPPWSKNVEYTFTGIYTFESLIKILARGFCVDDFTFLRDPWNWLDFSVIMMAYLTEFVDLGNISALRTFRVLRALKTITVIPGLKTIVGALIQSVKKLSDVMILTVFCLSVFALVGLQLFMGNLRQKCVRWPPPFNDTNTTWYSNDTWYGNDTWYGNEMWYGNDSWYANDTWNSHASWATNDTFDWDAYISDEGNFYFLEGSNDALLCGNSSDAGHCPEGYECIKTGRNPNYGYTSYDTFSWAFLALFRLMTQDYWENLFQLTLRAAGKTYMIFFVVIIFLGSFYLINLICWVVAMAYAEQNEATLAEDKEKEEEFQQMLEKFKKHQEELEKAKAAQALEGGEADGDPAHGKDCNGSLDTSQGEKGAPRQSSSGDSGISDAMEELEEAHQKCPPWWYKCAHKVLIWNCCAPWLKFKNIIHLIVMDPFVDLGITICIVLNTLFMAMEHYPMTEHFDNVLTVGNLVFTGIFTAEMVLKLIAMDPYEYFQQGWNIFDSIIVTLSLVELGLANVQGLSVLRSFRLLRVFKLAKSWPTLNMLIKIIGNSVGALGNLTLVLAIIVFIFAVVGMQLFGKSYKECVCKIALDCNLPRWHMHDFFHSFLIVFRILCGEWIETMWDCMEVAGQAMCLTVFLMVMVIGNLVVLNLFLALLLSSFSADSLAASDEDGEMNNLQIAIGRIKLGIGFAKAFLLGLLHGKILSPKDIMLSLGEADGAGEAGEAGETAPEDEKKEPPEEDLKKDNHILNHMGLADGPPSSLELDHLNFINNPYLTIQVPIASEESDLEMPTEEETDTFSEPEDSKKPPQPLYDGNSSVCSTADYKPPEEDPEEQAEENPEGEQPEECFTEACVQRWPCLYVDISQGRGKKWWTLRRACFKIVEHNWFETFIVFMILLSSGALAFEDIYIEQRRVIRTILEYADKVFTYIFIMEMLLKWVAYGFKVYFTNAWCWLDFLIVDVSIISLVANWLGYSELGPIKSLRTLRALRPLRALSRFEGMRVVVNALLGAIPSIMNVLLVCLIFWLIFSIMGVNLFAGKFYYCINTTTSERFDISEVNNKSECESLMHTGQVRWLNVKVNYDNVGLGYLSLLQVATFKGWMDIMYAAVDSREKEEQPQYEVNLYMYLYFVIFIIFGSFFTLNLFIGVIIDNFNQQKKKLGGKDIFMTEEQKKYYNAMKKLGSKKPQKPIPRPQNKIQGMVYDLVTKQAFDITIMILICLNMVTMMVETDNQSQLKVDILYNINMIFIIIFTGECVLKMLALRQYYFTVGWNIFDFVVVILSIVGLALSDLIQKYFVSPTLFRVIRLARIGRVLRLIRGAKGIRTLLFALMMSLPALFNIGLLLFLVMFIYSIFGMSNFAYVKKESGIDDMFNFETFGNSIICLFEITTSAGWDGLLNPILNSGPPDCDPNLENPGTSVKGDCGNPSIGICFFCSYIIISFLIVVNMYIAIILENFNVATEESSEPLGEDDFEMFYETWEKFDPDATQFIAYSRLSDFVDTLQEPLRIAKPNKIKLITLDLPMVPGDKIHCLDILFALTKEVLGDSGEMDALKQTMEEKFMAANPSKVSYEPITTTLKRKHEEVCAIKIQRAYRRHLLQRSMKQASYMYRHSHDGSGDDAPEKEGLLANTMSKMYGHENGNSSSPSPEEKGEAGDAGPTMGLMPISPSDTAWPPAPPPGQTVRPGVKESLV
T3 sequence (P15390 whole entry L435W/L437C/A438W): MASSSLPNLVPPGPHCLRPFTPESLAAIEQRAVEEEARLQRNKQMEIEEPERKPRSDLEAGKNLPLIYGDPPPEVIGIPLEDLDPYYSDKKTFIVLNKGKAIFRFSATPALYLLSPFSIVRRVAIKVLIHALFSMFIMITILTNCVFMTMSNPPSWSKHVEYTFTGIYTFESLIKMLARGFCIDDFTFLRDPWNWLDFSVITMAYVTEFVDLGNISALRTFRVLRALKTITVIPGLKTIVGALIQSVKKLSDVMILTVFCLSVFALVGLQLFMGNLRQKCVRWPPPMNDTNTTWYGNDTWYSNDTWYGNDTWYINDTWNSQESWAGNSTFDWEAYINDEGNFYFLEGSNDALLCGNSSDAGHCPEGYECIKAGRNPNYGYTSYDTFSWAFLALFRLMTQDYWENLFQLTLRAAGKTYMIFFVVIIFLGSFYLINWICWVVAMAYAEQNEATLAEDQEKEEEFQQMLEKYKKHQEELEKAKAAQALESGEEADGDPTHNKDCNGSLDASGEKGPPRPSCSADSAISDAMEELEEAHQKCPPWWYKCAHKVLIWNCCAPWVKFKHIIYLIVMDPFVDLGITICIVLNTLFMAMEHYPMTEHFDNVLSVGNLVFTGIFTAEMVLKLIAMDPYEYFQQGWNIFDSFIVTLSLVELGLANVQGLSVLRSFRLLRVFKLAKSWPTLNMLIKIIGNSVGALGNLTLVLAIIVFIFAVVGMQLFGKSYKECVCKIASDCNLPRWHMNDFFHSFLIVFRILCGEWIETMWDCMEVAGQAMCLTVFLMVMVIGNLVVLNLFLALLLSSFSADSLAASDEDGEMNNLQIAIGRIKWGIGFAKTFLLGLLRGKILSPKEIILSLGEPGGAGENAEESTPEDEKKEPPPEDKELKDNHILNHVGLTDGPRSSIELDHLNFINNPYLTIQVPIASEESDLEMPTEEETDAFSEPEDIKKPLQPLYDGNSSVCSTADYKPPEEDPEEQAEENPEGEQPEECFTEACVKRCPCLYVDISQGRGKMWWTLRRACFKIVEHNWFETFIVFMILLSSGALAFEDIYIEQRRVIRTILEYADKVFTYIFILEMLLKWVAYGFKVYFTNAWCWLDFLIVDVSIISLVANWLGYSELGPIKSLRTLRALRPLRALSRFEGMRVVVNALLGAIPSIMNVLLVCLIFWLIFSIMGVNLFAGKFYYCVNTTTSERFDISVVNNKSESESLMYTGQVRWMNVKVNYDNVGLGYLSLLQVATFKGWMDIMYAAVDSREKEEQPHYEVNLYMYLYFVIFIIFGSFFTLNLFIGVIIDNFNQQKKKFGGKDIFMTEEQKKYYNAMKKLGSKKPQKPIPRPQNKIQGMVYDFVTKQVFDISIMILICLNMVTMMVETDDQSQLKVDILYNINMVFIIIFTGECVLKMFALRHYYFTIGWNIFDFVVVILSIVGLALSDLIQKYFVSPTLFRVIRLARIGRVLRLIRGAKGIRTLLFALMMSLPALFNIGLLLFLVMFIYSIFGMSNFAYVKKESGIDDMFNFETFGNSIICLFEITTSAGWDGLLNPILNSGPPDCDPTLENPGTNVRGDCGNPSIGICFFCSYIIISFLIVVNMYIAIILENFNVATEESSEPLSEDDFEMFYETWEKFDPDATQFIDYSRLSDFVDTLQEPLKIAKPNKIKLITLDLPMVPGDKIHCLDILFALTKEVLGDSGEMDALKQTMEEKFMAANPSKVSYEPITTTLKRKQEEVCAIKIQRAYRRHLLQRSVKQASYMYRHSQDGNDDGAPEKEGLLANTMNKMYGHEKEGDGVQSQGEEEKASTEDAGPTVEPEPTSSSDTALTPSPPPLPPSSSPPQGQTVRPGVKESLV
T3 sequence (Q00954 19-218 partner): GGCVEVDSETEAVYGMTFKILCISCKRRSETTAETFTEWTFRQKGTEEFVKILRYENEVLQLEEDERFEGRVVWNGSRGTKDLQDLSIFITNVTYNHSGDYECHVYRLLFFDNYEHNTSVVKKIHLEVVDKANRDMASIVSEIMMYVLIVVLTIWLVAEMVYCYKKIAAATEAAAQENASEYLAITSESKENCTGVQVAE
T2 sequence (P15390 whole entry): as the sequence (P15390 whole entry L435W/L437C/A438W) above, with W435L, C437L, W438A counted along it
T2 sequence (Q00954 19-218 partner): as the sequence (Q00954 19-218 partner) above

Q: Which “inhibition of peak Na+ currents” value ([1]; 10 μM, external) does the source give for `CCCNC[C@H](O)COc1ccccc1C(=O)CCc1ccccc1.Cl` [(S)-propafenone, (S)-Propafenone-HCl] here?
A: The value was “also inhibited, but to a lesser extent”.

Q: What about the “block of persistent late Na+ currents” value [1, 6] of the same compound?
A: Its value is “potently blocks”.

Q: Which “block of inactivation-deficient Na+ currents” value [2] does the source give for `CC[N+](CC)(CC)CC(=O)Nc1c(C)cccc1C` [QX-314] here?
A: The value was “does not block”.

Q: With `NC1=N[C@H](O)[C@H]2[C@H]3O[C@]4(O)O[C@@H]([C@@H](O)[C@@]2(N1)[C@@H]4O)[C@]3(O)CO` [TTX, Tetrodotoxin] as the compound, how does the Hill coefficient [1] read?
A: The Hill coefficient was 1.09±0.04.

Q: And the “time-dependent block by TTX” value [1]?
A: The value was “no evidence of a time-dependent block”.

Q: For `CCCCc1oc2ccccc2c1C(=O)c1cc(I)c(OCCN(CC)CC)c(I)c1` [amiodarone], which “block of persistent late Na+ currents” value [1] is on record?
A: Its value is “Most, if not all, persistent late currents were inhibited”.

Q: And the “inhibition of peak Na+ currents” value [1]?
A: The value was “also reduced slowly, but again to a lesser extent”.

Q: And the “time to steady-state block of late Na+ currents (wash-in)” value [1]?
A: The value was 15 min.

Q: What about the wash-out of block [1] of the same compound?
A: Its wash-out of block is “slow and incomplete”.

Q: For `CC(C)N(CCC(C(N)=O)(c1ccccc1)c1ccccn1)C(C)C` (stereo not drawn) [disopyramide], which “open-channel block in IFM/QQQ mutant channels” value (IFM/QQQ mutant channels) is on record?
A: The value was “weak open-channel block”.

Q: What does the source list for `O=C(NCC1CCCCN1)c1cc(OCC(F)(F)F)ccc1OCC(F)(F)F` (stereo not drawn) [flecainide]?
A: IC50 [3]: ~400 µM; time constant of recovery from inactivated block [3]: > 100 s; V0.5 of Boltzmann fit, voltage dependence of flecainide block [3, 7]: −57.3±2.7 mV; kE (slope factor) of Boltzmann fit, voltage dependence of flecainide block [3, 7]: 17.6±2.1 mV; time for flecainide block to reach steady state ([3]; 30 mM flecainide, +50 mV pulses at 30-s interval): 5 to 7 min; inhibition at 30000 µM ([3]; HEK-293T, read-out: peak currents inhibited after flecainide block reached steady state): ~50%; time constant of development of the inactivated block ([3]; at −50 mV): 10.9 ± 1.3 s; block of peak Na+ currents (resting state) ([3]; cell not stimulated repetitively in 1,000 s): ~20%; time for full recovery from flecainide block (dissociation) [3]: ≥ 1,000 s; time for full recovery from flecainide block (dissociation) ([3]; listed as Flecainide): up to 10,000 s; additional use-dependent block ([3]; repetitive pulses at 5 Hz for 60 pulses): ~50%; difference between the high and low flecainide affinities ([3]; −20 mV vs −140 mV conditioning): less than 3 fold; time to steady state block at each concentration ([4]; 140 ms test pulse to +30 mV every 30 seconds, 0.1 to 30 μM): ≤ 5 min; block of the maintained Na+ currents ([4]; at +50 mV, 0.1 to 30 μM flecainide): strong time-dependent block; time constant of recovery from the open channel block ([4]; at −140 mV): 11.2 s; IC50 ([4]; conditioning pulse −50 mV, 10 s, read-out: IC50 with a conditioning pulse at −50 mV for 10 s (estimated block at the peak current)): 4.1 ± 0.1 µM; Kd ([4]; from off-rate/on-rate, read-out: calculated dissociation constant (open channel)): 0.81 µM; difference of resting and open channel affinities ([4]; inactivation-deficient mutant channels): ~500 fold; IC50 ([4]; open channel, read-out: IC50 for the open block (estimated block at the end of the pulse)): 0.61 ± 0.07 µM; IC50 ([4]; resting channel, holding −140 mV, read-out: IC50 for the resting block (estimated block at the peak current)): 208 µM and 307 µM; on-rate constant with the open channel ([4]; test pulse +30 mV, slope of 1/τ vs concentration): 1.49e+07 M⁻¹ s⁻¹; off-rate constant with the open channel ([4]; test pulse +30 mV, y-intercept of 1/τ vs concentration): 12.2 s⁻¹; block of persistent late Na+ currents [1, 6]: strong block; open-channel block in IFM/QQQ mutant channels (IFM/QQQ mutant channels): weak open-channel block

Q: Which “block of persistent late Na+ currents” value [1, 6] does the source give for `Cc1cccc(C)c1OCC(C)N` (stereo not drawn) [mexiletine] here?
A: Its value is “strong block”.

Q: And the therapeutic plasma concentration [5]?
A: Its therapeutic plasma concentration is 2.8 to 11.2 µM.

Q: Which “activation threshold of BTX-modified Na+ currents” value ([1]; 5 μM BTX in pipette solution) does the source give for batrachotoxin [BTX] here?
A: The value was −80 mV.

Q: What about the “effect on fast and slow inactivation” value ([1]; 5 μM BTX in pipette solution) of the same compound?
A: The value was “completely eliminates the fast and the slow inactivation”.

Q: And the “shift of activation threshold” value ([1]; 5 μM BTX in pipette solution, after 400 repetitive pulses at +50 mV, 1 Hz)?
A: The value was ~−40 mV.
